According to patent publication US7569695B2, “Dyes for the detection or quantification of desirable target molecules” (Enzo Life Sciences, Inc., priority 2005, dated 2009):

Legend:
[1] = system: 78 bp amplicon from the anti-sense C construct; test: Amplification of nucleic acids in the presence of dye using a standard PCR machine (Example 34); format: biochemical; settings: for amplicon synthesis (gel analysis, FIG. 2): 20 cycles
Method: The experiment shown in Example 33 was repeated using a standard PCR machine for synthesis to see if the effects observed in Example 33 was dependent upon the rapid heating and cooling steps used in the Light Cycler.
A master mixture was made up of: • 500 µl of 2× PCR mix described in example 33 • 20 µl of 25 mM MgCl2 • 175 µl of DEPC treated H2O • 10 ul of 1 u/l ung (Epicentre) • 10 µl of 10 mg/ml BSA (New England Biolabs, Beverly, Mass.) • 10 l Taq polymease (Perkin Elmer)+10 µl of TaqStart (Clontech) PCR conditions were 2.5 µl of target template+2.0 l of dye was added to 15.5 µl of Master mixture incubated at 45° C. for 10 minutes and then amplified using cycles of: • a) 94° C. for 30 seconds • b) 65° C. for 30 seconds • c) 72° C. for 1 minute
A duplicate set of samples was amplified with one set being taken out after 20 cycles of amplification and the second set undergoing 40 cycles. […] The other effect previously observed was also seen, i.e. non-target amplicon synthesis seen in the no Dye reaction (lane 1) was reduced with the 1:200 dilution of SYBR Green and the 1:10 dilution of Dye 109 again repeating the results of Example 33.

[2] = system: 78 bp amplicon from the anti-sense C construct; test: Amplification of nucleic acids on the Light Cycler in the presence of dye (Example 33); format: biochemical
Method: A target template was amplified on the Light Cycler (Roche) in the presence of various amounts of Dye 109 from Example 14. As a control, various amounts of SYBR Green (Molecular Probes, Eugene, Oreg.) were also included. The template was a 1:500 dilution of a 78 bp amplicon made in a previous reaction from the anti-sense C construct described in Liu et al. 1997 (J. Virol. 71: 4079-4085). A 2×PCR mix was made up of 20 mM Tris pH 8.3, 50 mM KCl, 4 mM MgCl2, 0.4 mM dCTP, 0.4 mM dGTP, 0.4 mM dATP, 0.8 mM dUTP, […] and […].
The Forward Primer sequence is comprised of 20 nucleotides: 5′ […] 3′ (SEQ ID NO: 1). It is an artificial sequence comprising a fusion of human Ul and HIV sequences. Bases 1-7 (CATGATC) of the first sequence are derived from plasmid pHSD-4 and comprise sequences from the human Ul gene. Bases […] (GATCCGGATGGGAGGTG) of the second sequence are derived from a region of the BAL strain of HIV containing the Tat/Rev splice acceptor site.
The Reverse Primer sequence is comprised of 22 nucleotides: 5′[…] (SEQ ID NO: 2). It is an artificial sequence comprising a fusion of human Ul and HIV sequences. Bases 1-11 (GCACATCCGGA) of the first sequence are derived from plasmid pHSD-4 and comprise sequences from the human Ul gene. Bases […] (GATCCGGATGGGAGGTG) of the second sequence are derived from a region of the BAL strain of HIV containing the Tat/Rev splice acceptor site.
The 78 bp amplicon synthesized with Forward Primer (SEQ ID NO: 1) and Reverse Primer (SEQ ID NO: 2) has the following sequence: 5′ […] 3′ (SEQ ID NO: 3). It is an artificial sequence comprising a fusion of human Ul and HIV sequences. Bases 1-11 (GCACATCCGGA) and 68-78 (TCCGGATGTGC) are derived from plasmid pHSD-4 and comprise sequences from the human Ul gene. Bases […] are derived from a region of the BAL strain of HIV containing the Tat/Rev splice acceptor site.
A master mixture was made up of: • 350 µl of 2×PCR mix described above • 14 µl of 25 mM MgCl2 • 122.5 µl of DEPC treated H2O • 14 ul of 1 u/l ung (Epicentre) • 7 µl of 10 mg/ml BSA (New England Biolabs, Beverly, Mass.) • 7 l Taq polymease (Perkin Elmer)+7 µl of TaqStart (Clontech) • 2.5 µl of target template+2.0 l of various dilutions of dyes were added to 15.5 µl of Master mixture, incubated at 45° C. for 10 minutes and then amplified by: • 1) Melting • 2 minutes @ 95° C. • 2) Cycling • a) Denaturation step: 0 seconds @ 95° C. • b) Annealing step: 5 seconds @ 69° C. for first cycle; subsequent cycles were each reduced by 0.5° C. until 65° C. was reached and all annealing steps in further cycles were carried out at this temperature • c) Extension step: 5 seconds @ 72° C. • 3) After completion of 56 cycles, all samples were maintained at 4° C. until analyzed.
After the amplification reactions were finished, the samples were analyzed by gel electrophoresis. For SYBR Green, the recommended reaction concentration is 1:10,000. As such, the amplification products shown in lanes 5 and 6 using 2 l of […] dilution in a 20 l reaction (final=1:8,000) is approximately representative of the product from the standard procedure. For Dye 109, the reactions are listed in terms of dilutions of a stock of Dye 109 with an OD reading of 200 taken at 495 nm. […] However, when lower dilutions of the dyes were added there was no inhibition of the process.

[3] = 1:200 dilution of SYBR Green, lane 7

Q: `CCCN(CCCN(C)C)c1cc(/C=C2/Sc3ccccc3N2C)c2ccccc2[n+]1-c1ccccc1` [SYBR Green, reference compound] was tested. Which “amplicon synthesis (gel analysis, FIG. 2)” value ([1]; 1:200 dilution of SYBR Green, lanes 5 and 6) did it give?
A: a single discrete band

Q: What about the “amplicon synthesis (gel analysis, FIG. 2)” value ([1]; all other SYBR Green dilutions) of the same molecule?
A: no synthesis was evident

Q: What about the “non-target amplicon synthesis compared to the no Dye reaction” value ([1]; 40 cycles, 1:200 dilution of SYBR Green) of the same molecule?
A: reduced

Q: What about the “amplification (gel analysis, FIG. 1)” value ([2]; 1:20 dilution of SYBR Green, 56 cycles) of the same molecule?
A: strong inhibition of amplification

Q: What about the “synthesis of non-target derived amplicons” value [2, 3] of the same molecule?
A: elimination or suppression of the synthesis of non-target derived amplicons

Q: And the “synthesis of target derived amplicons compared to the reaction without any dye” value [2, 3]?
A: enhancement of overall synthesis of target derived amplicons
